{"source": "patent US12076400B2", "about": "“Methods of using a bispecific antigen-binding construct targeting HER2 in combination with CDK4/6 inhibitors for the treatment of breast cancer” (c/o Zymeworks BC Inc., priority 2019, dated 2024)", "origin": "cited, not measured here", "test_system": "estrogen receptor (ER)-positive breast cancer cell lines", "conditions": "by blocking progression from G1 into S phase", "data": [{"smiles": "CC(=O)c1c(C)c2cnc(Nc3ccc(N4CCNCC4)cn3)nc2n(C2CCCC2)c1=O", "note": "[palbociclib, Palbociclib]", "values": [{"measurement": "Cellular proliferation in vitro", "value": "reduced cellular proliferation"}]}]}
